Results as given in ChEMBL document CHEMBL1201862, “PubChem BioAssay data set” (2004).
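Method: 48-hour compound exposure of cells in 96-well plates, five concentrations, linear interpolation of endpoints. GI50 is the concentration that inhibits growth by half.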 The source made the active and inactive calls. No stated cut-off is given here; in the data, active = GI50 up to about 1.1 µM and inactive = higher.

Columns and labels:
Experiment in all cases: NCI-60 cell line screen, 48 h
PC-3 = test system: PC-3
NCI-H23 = test system: NCI-H23
SK-MEL-28 = test system: SK-MEL-28
NCI-H226 = test system: NCI-H226
UACC-257 = test system: UACC-257
TK-10 = test system: TK-10
K562 = test system: K562
OVCAR-4 = test system: OVCAR-4
A498 = test system: A498
ACHN = test system: ACHN
SK-MEL-2 = test system: SK-MEL-2
A549 = test system: A549
SR = test system: SR
MDA-N = test system: MDA-N
SN12C = test system: SN12C
786-0 = test system: 786-0
IGROV-1 = test system: IGROV-1
Malme-3M = test system: Malme-3M
COLO 205 = test system: COLO 205
SF-539 = test system: SF-539
OVCAR-8 = test system: OVCAR-8
HOP-92 = test system: HOP-92
SF-295 = test system: SF-295
BT-549 = test system: BT-549
HT-29 = test system: HT-29
HOP-62 = test system: HOP-62
SK-OV-3 = test system: SK-OV-3
LOX IMVI = test system: LOX IMVI
UO-31 = test system: UO-31
RPMI-8226 = test system: RPMI-8226
EKVX = test system: EKVX
OVCAR-5 = test system: OVCAR-5
SW-620 = test system: SW-620
SNB-75 = test system: SNB-75
DU-145 = test system: DU-145
Hs-578T = test system: Hs-578T
NCI-H460 = test system: NCI-H460
NCI/ADR-RES = test system: NCI/ADR-RES
CAKI-1 = test system: CAKI-1
MCF7 = test system: MCF7
HCT-15 = test system: HCT-15
SK-MEL-5 = test system: SK-MEL-5
SF-268 = test system: SF-268
HL-60 = test system: HL-60
NCI-H522 = test system: NCI-H522
MOLT-4 = test system: MOLT-4
HCT-116 = test system: HCT-116
M14 = test system: M14
RXF 393 = test system: RXF 393
CCRF-CEM = test system: CCRF-CEM
T47D = test system: T47D
KM12 = test system: KM12
SNB-19 = test system: SNB-19
MDA-MB-231 = test system: MDA-MB-231
U-251 = test system: U-251
OVCAR-3 = test system: OVCAR-3
UACC-62 = test system: UACC-62
HCC 2998 = test system: HCC 2998
MDA-MB-435 = test system: MDA-MB-435

Measured: GI50

O=C(O)CSSCC(=O)O
> 100 µM: HCT-15
inactive: PC-3 > 100 µM | NCI-H23 > 100 µM | SK-MEL-28 > 100 µM | NCI-H226 > 100 µM | UACC-257 > 100 µM | TK-10 > 100 µM | K562 > 100 µM | OVCAR-4 > 100 µM | A498 > 100 µM | ACHN > 100 µM | SK-MEL-2 > 100 µM | A549 > 100 µM | SR > 100 µM | MDA-N > 100 µM | SN12C > 100 µM | 786-0 > 100 µM | IGROV-1 > 100 µM | Malme-3M > 100 µM | COLO 205 > 100 µM | SF-539 > 100 µM | OVCAR-8 > 100 µM | HOP-92 > 100 µM | SF-295 > 100 µM | BT-549 > 100 µM | HT-29 > 100 µM | HOP-62 > 100 µM | SK-OV-3 > 100 µM | LOX IMVI > 100 µM | UO-31 > 100 µM | RPMI-8226 > 100 µM | EKVX > 100 µM | OVCAR-5 > 100 µM | SW-620 > 100 µM | SNB-75 > 100 µM | DU-145 > 100 µM | Hs-578T > 100 µM | NCI-H460 > 100 µM | NCI/ADR-RES > 100 µM | CAKI-1 > 100 µM | MCF7 > 100 µM | SK-MEL-5 > 100 µM | SF-268 > 100 µM | HL-60 > 100 µM | NCI-H522 > 100 µM | MOLT-4 > 100 µM | HCT-116 > 100 µM | M14 > 100 µM | RXF 393 > 100 µM | CCRF-CEM > 100 µM | T47D > 100 µM | KM12 > 100 µM | SNB-19 > 100 µM | MDA-MB-231 > 100 µM | U-251 > 100 µM | OVCAR-3 > 100 µM | UACC-62 > 100 µM | HCC 2998 > 100 µM | MDA-MB-435 > 100 µM

Cc1ccc(/C=N/n2c(-c3ccc(C)cc3)n[nH]c2=O)cc1
inactive: PC-3 > 100 µM | NCI-H23 29.2 µM | SK-MEL-28 > 100 µM | NCI-H226 > 100 µM | UACC-257 > 100 µM | TK-10 60.8 µM | K562 96.4 µM | OVCAR-4 40 µM | A498 26.9 µM | ACHN 79.8 µM | SK-MEL-2 > 100 µM | A549 41 µM | SR 25.4 µM | MDA-N 80.7 µM | SN12C 94.6 µM | 786-0 29.6 µM | IGROV-1 > 100 µM | Malme-3M 80.5 µM | COLO 205 > 100 µM | SF-539 50.4 µM | OVCAR-8 36.7 µM | HOP-92 55.8 µM | SF-295 48.8 µM | BT-549 90.4 µM | HT-29 > 100 µM | HOP-62 61.9 µM | SK-OV-3 28.7 µM | UO-31 75 µM | RPMI-8226 > 100 µM | EKVX > 100 µM | OVCAR-5 84.9 µM | SW-620 > 100 µM | SNB-75 > 100 µM | DU-145 91.6 µM | Hs-578T > 100 µM | NCI-H460 21.5 µM | NCI/ADR-RES 59.6 µM | CAKI-1 35.9 µM | MCF7 > 100 µM | SK-MEL-5 38.1 µM | SF-268 > 100 µM | HL-60 > 100 µM | NCI-H522 > 100 µM | MOLT-4 92.7 µM | HCT-116 54 µM | M14 68.4 µM | RXF 393 23.1 µM | CCRF-CEM 21.5 µM | T47D > 100 µM | KM12 > 100 µM | SNB-19 77.4 µM | MDA-MB-231 45.8 µM | U-251 35.3 µM | OVCAR-3 > 100 µM | UACC-62 78 µM | HCC 2998 > 100 µM | MDA-MB-435 47.2 µM
66.7 µM: HCT-15

CCOC(=O)C(CCN1CCC2(CC1)C(=O)N(C)CN2c1ccccc1)C(=O)OCC
> 100 µM: HCT-15
inactive: PC-3 > 100 µM | NCI-H23 > 100 µM | SK-MEL-28 > 100 µM | NCI-H226 > 100 µM | UACC-257 > 100 µM | TK-10 > 100 µM | K562 > 100 µM | OVCAR-4 > 100 µM | A498 > 100 µM | ACHN > 100 µM | SK-MEL-2 > 100 µM | A549 > 100 µM | SR > 100 µM | MDA-N > 100 µM | SN12C > 100 µM | 786-0 > 100 µM | IGROV-1 > 100 µM | Malme-3M > 100 µM | COLO 205 > 100 µM | SF-539 > 100 µM | OVCAR-8 > 100 µM | HOP-92 > 100 µM | SF-295 > 100 µM | BT-549 > 100 µM | HT-29 > 100 µM | HOP-62 > 100 µM | SK-OV-3 > 100 µM | LOX IMVI > 100 µM | UO-31 > 100 µM | RPMI-8226 > 100 µM | EKVX > 100 µM | OVCAR-5 > 100 µM | SW-620 > 100 µM | SNB-75 > 100 µM | DU-145 > 100 µM | Hs-578T > 100 µM | NCI-H460 > 100 µM | NCI/ADR-RES > 100 µM | CAKI-1 > 100 µM | MCF7 > 100 µM | SK-MEL-5 > 100 µM | SF-268 > 100 µM | HL-60 > 100 µM | NCI-H522 > 100 µM | MOLT-4 > 100 µM | HCT-116 > 100 µM | M14 > 100 µM | RXF 393 > 100 µM | CCRF-CEM > 100 µM | T47D > 100 µM | KM12 > 100 µM | SNB-19 > 100 µM | MDA-MB-231 > 100 µM | U-251 > 100 µM | OVCAR-3 > 100 µM | UACC-62 > 100 µM | HCC 2998 57.7 µM | MDA-MB-435 > 100 µM

C/C=C/C(CC(O)(C(F)(F)F)C(F)(F)F)=N/NC(N)=S
inactive: PC-3 > 10 µM | NCI-H23 > 10 µM | SK-MEL-28 > 10 µM | NCI-H226 > 10 µM | UACC-257 > 10 µM | TK-10 > 10 µM | K562 > 10 µM | OVCAR-4 > 10 µM | A498 > 10 µM | ACHN > 10 µM | SK-MEL-2 > 10 µM | A549 > 10 µM | SR > 10 µM | MDA-N > 10 µM | SN12C > 10 µM | 786-0 > 10 µM | IGROV-1 > 10 µM | Malme-3M > 10 µM | COLO 205 > 10 µM | SF-539 > 10 µM | OVCAR-8 > 10 µM | HOP-92 > 10 µM | SF-295 > 10 µM | BT-549 > 10 µM | HT-29 > 10 µM | HOP-62 > 10 µM | SK-OV-3 > 10 µM | LOX IMVI > 10 µM | RPMI-8226 > 10 µM | EKVX > 10 µM | OVCAR-5 > 10 µM | SW-620 > 10 µM | SNB-75 > 10 µM | DU-145 > 10 µM | Hs-578T > 10 µM | NCI-H460 > 10 µM | NCI/ADR-RES > 10 µM | CAKI-1 > 10 µM | MCF7 > 10 µM | SK-MEL-5 > 10 µM | SF-268 > 10 µM | HL-60 > 10 µM | NCI-H522 > 10 µM | MOLT-4 > 10 µM | HCT-116 > 10 µM | M14 > 10 µM | RXF 393 > 10 µM | CCRF-CEM > 10 µM | T47D > 10 µM | KM12 > 10 µM | SNB-19 > 10 µM | MDA-MB-231 > 10 µM | U-251 > 10 µM | OVCAR-3 > 10 µM | UACC-62 > 10 µM | HCC 2998 > 10 µM | MDA-MB-435 > 10 µM
> 10 µM: HCT-15
